Measured values taken from patent US20200224136A1, “INTESTINE-CHIP: DIFFERENTIAL GENE EXPRESSION MODEL” (priority 2019, published 2020).

What was measured:
[1] = system: Small Intestinal Organoids; conditions: 30 uM DCA, 2 hours; GLP-1 (Active) assay; cited from earlier work
[2] = system: Mixed primary cultures (upper half of SI); conditions: 10 mM, 2-4 hours; Active GLP-1 ELISA-kit (Millipore); cited from earlier work
[3] = system: Mixed primary cultures (Colon); conditions: 10 mM, 2-4 hours; Active GLP-1 ELISA-kit (Millipore); cited from earlier work
[4] = system: Endoscopic duodenal biopsies; conditions: 300 mM, Intraduodenal Glucose Infusion, 30 min; GLP-1 (Active) ELISA Kit (Millipore); cited from earlier work
[5] = system: GLUTag Cells; conditions: 250 uM, 36 minutes; Active GLP-1 (ver. 2) Assay Kit (Mesoscale Discovery); cited from earlier work
[6] = system: Ileum-Chip; assay: TNF-α induced inflammation in Ileum-Chip: chemokine release (ELISA) and I-CAM1/MadCAM1 expression; format: cell-based, human; parameters: Apical CXCL11 (1-TAC) / Apical CCL20 (MIP-3 alpha) / Basal CCL25 (TECK) / Basal CXCL8 (IL-8) / Basal CXCLIO (IP-10) / Basal CXCL11 (1-TAC) / Basal CCL20 (MIP-3 alpha) / Apical CCL25 (TECK) / Apical CXCL8 (IL-8) / Apical CXCLIO (IP-10): unit not given here
Text: (§1) TNFα induces increased membrane expression of I-CAM1 and MadCAM1 in intestinal microvascula endothelium.
(§2) Identification of MadCAM1 and characterization of microvascular response to inflammation in Ileum-Chip. Inflammation-Induced Expression of I-CAM1 and MadCAM1 in Ileum-Chip. Read-outs: mRNA expression of vascular adhesion molecules (I-CAM1, MadCAM1); Immunofluorescent detection of I-CAM1 and MadCAM1; Epithelial and vascular release of inflammatory chemokines using ELISA (Meso Scale Discovery). FIG. 13. FIG. 14.
Summary of Evaluation of Microvascular Function in Ileum-Chip.

[7] = system: Ileum-Chip; assay: Intestinal barrier function of Ileum-Chip under TNF-α; format: cell-based, human; conditions: vascular exposure, 100 U/ml (~2 ng/ml)
Method: As one example, to evaluate the integrity of the intestinal barrier 3 kDa Cascade Blue dextran (Sigma, D7132) was added to the epithelial compartment of the Duodenum-Chip at 0.1 mg/ml on the day of connecting a microfluidic device to flow, e.g., see exemplary timelines. Effluents of the endothelial compartment were sampled 3 hours after the addition of a dye, up to 24 hours, up to 48 hours, up to 72 hours, or at 48 hour intervals until the end of the assay, in order to determine the concentration of dye that has diffused through the membrane.
The apparent paracellular permeability (Papp) was calculated based on a standard curve and using the following formula: […]
as §1

[8] = system: intestinal microvascular endothelium; assay: TNF-α stimulation of microvasculature alone: chemokine release; format: cell-based, human; parameters: unit not given here; conditions: TNF-α 100 U/ml, n = 1, 4 chips/condition
Text: as §2

[9] = TNF-α 100 U/ml, n = 1, 4 chips/condition

C[C@H](CCC(=O)O)[C@H]1CC[C@H]2[C@@H]3CC[C@@H]4C[C@H](O)CC[C@]4(C)[C@H]3C[C@H](O)[C@]12C [DCA]
GLP-1 Concentration (fold increase) [1]: 2.5-fold increase

OC[C@H]1OC(O)[C@H](O)[C@@H](O)[C@@H]1O (stereo partly shown) [Glucose]
GLP-1 Concentration (fold increase), SI [2]: (Colon), 2-fold | GLP-1 Concentration (fold increase), Colon [3]: 10-fold increase | GLP-1 Concentration (fold increase) [4]: 3-fold increase

CCCCCCCC/C=C\CCCCCCCC(=O)O [Oleic Acid]
GLP-1 Concentration (fold increase) [5]: 4-fold increase

TNF-α
membrane expression of I-CAM1 and MadCAM1 in intestinal microvascular endothelium ([6]; 100 U/ml): increased | Apical CCL20 (MIP-3 alpha) [6, 9]: 170.92 ± 36.8 | Apical CCL25 (TECK) [6, 9]: 17.11 ± 9.2 | Apical CXCL8 (IL-8) [6, 9]: 16.30 ± 5.9 | Apical CXCL11 (1-TAC) [6, 9]: 302.01 ± 111.8 | Apical CXCLIO (IP-10) [6, 9]: 6.34 ± 2.3 | Basal CCL20 (MIP-3 alpha) [6, 9]: 93.93 ± 18.3 | Basal CCL25 (TECK) [6, 9]: 117.91 ± 16.1 | Basal CXCL8 (IL-8) [6, 9]: 1868.99 ± 198.7 | Basal CXCL11 (1-TAC) [6, 9]: 26.00 ± 9.1 | Basal CXCLIO (IP-10) [6, 9]: 502.04 ± 287.1 | effect on intestinal barrier function [7]: does not affect | Apical CCL20 (MIP-3 alpha) [8]: 0.74 ±0.9 | Apical CXCL8 (IL-8) [8]: 105.5 ± 74.2 | Apical CXCL11 (1-TAC) [8]: 0.53 ± 1.0 | Apical CXCLIO (IP-10) [8]: 0.19 ± 0.1 | Basal CCL20 (MIP-3 alpha) [8]: 3.51 ± 2.8 | Basal CXCL8 (IL-8) [8]: 1835.44 ± 282.8 | Basal CXCL11 (1-TAC) [8]: 1.74 ± 1.4 | Basal CXCLIO (IP-10) [8]: 35.22 ± 20.1
